Holding throughout (format): in vivo
Data set [1] concerns indian jointvetch. Kind of data set: Herbicidal activity test against upland field weeds (foliar treatment test). Also noted: key to Foliar treatment herbicidal activity, Indian jointvetch: 0 (no control); 100 (complete control). The note with it: 50 g ai/ha, scale 0-100. Put shortly: (§1)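 Greenhouse-grown plants (30±5 °C, 14/10 h light/dark) foliar hand-sprayed with compound in 50% acetone, 0.1% Tween-20 at 50 or 75 g a.i./ha. Control visually scored 0 (none) to 100 (complete) versus untreated after 14 days, or 21 days if needed.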

Data set [2] concerns crabgrass. As to the kind of experiment: Herbicidal activity test against upland field weeds (soil treatment test). The note with it: 50 g ai/ha, scale 0 (no control) to 100 (complete control). Also on record: key to Soil treatment herbicidal activity, Crabgrass: 0 (no control); 100 (complete control). Summed up:
(§2)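 Pre-emergence soil surface spray, day after sowing, into sandy loam pots with fertilizer; compounds at 50 or 75 g a.i./ha in 50% acetone, 0.1% Tween-20. Greenhouse at 30±5 °C, 14/10 h light/dark; visual control rated 0–100 against untreated after 14 days (21 if needed).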

In data set [3] the test system is velvetleaf. Described as above. Particulars: 50 g ai/ha, scale 0 (no control) to 100 (complete control); for pest or weed control at 50 g/ha: Abutilon theophrasti, read-out: Soil treatment herbicidal activity, velvet leaf. Put shortly:
as §2

For data set [4], the system named is barnyard grass. The data set is described as above. Also noted: key to Soil treatment herbicidal activity, barnyard grass: 0 (no control); 100 (complete control). Particulars: 50 g ai/ha, scale 0 (no control) to 100 (complete control). Summed up: as §2
Data set [5] has as its system sorghum. As to the kind of experiment: Herbicidal activity test against upland field weeds (foliar treatment test). The note with it: 50 g ai/ha, scale 0-100; for plant injury at 50 g/ha: Sorghum. Put shortly:
as §1

Data set [6] relates to black nightshade. Kind of data set: Herbicidal activity test against upland field weeds (soil treatment test). Also on record: key to Soil treatment herbicidal activity, black nightshade: 0 (no control); 100 (complete control). Particulars: 50 g ai/ha, scale 0 (no control) to 100 (complete control); for pest or weed control at 50 g/ha: Solanum nigrum. Put shortly: as §2
Data set [7] has as its system crabgrass. Kind of data set: Herbicidal activity test against upland field weeds (foliar treatment test). Also noted: key to Foliar treatment herbicidal activity, Crabgrass: 0 (no control); 100 (complete control). Particulars: 50 g ai/ha, scale 0-100. Summed up: as §1
Data set [8] has as its system sorghum. Kind of data set: Herbicidal activity test against upland field weeds (soil treatment test). Also noted: key to Soil treatment herbicidal activity, Sorghum: 0 (no control); 100 (complete control). The note with it: 50 g ai/ha, scale 0 (no control) to 100 (complete control). Put shortly:
as §2

For data set [9], the system named is quack grass. The data set is described as above. Also on record: key to Soil treatment herbicidal activity, quack grass: 0 (no control); 100 (complete control). Particulars: 50 g ai/ha, scale 0 (no control) to 100 (complete control). Summed up: as §2
In data set [10] the test system is quack grass. Kind of data set: Herbicidal activity test against upland field weeds (foliar treatment test). Also on record: key to Foliar treatment herbicidal activity, quack grass: 0 (no control); 100 (complete control). Particulars: 50 g ai/ha, scale 0-100. Summed up:
as §1

Data set [11] has as its system indian jointvetch. As to the kind of experiment: Herbicidal activity test against upland field weeds (soil treatment test). Also noted: key to Soil treatment herbicidal activity, Indian jointvetch: 0 (no control); 100 (complete control). The note with it: 50 g ai/ha, scale 0 (no control) to 100 (complete control). Summed up:
as §2

In data set [12] the test system is black nightshade. As to the kind of experiment: Herbicidal activity test against upland field weeds (foliar treatment test). Also on record: key to Foliar treatment herbicidal activity, black nightshade: 0 (no control); 100 (complete control). The note with it: 50 g ai/ha, scale 0-100. Summed up: as §1
Data set [13] concerns bindweed. The description is as above. Particulars: 50 g ai/ha, scale 0-100. Also on record: key to Foliar treatment herbicidal activity, Bindweed: 0 (no control); 100 (complete control). Summed up: as §1
The subject of data set [14] is barnyard grass. The description is as above. Particulars: 50 g ai/ha, scale 0-100; for pest or weed control at 50 g/ha: Echinochloa crus-galli. Put shortly: as §1
For data set [15], the system named is velvetleaf. Described as above. Also on record: key to Foliar treatment herbicidal activity, velvet leaf: 0 (no control); 100 (complete control). Particulars: 50 g ai/ha; for Foliar treatment herbicidal activity, velvet leaf: scale 0-100. Summed up: as §1
Data set [16] relates to fall panicum. As to the kind of experiment: Herbicidal activity test against upland field weeds (soil treatment test). Also on record: key to Soil treatment herbicidal activity, Fall panicum: 0 (no control); 100 (complete control). The note with it: 50 g ai/ha, scale 0 (no control) to 100 (complete control). Summed up: as §2
In data set [17] the test system is cocklebur. As to the kind of experiment: Herbicidal activity test against upland field weeds (foliar treatment test). Particulars: 50 g ai/ha, scale 0-100; for pest or weed control at 50 g/ha: Xanthium strumarium. Summed up:
as §1

The test system of data set [18] is cocklebur. Kind of data set: Herbicidal activity test against upland field weeds (soil treatment test). The note with it: 50 g ai/ha, scale 0 (no control) to 100 (complete control). Also on record: key to Soil treatment herbicidal activity, Cocklebur: 0 (no control); 100 (complete control). How it is done:
(§3) Experimental Example 2: Herbicidal Activity Test Against Upland Field Weeds (Soil Treatment Test) Soil treatment was performed as follows: After filling a square plastic pot having a surface area of 350 cm^2 with sandy loam mixed with 1 g per pot (350 cm^2) of horticultural mixed fertilizer (N:P:K=11:10:11), seeds (10˜15 grains) or rootstocks (2 pieces) of 5 kinds of grassy weeds of sorghum, barnyard grass, quack grass, crabgrass, fall panicum, and 5 kinds of broadleaf weeds of black nightshade, indian jointvetch, velvetleaf, cocklebur, bindweed, which had been stored in a low temperature (6° C.), were sown. The day after sowing, test compound solutions were made by diluting with a preparation solution (including 50% acetone, 0.1% Tween-20) so that the final treatment amount of the test compounds was 50 or 75 g a.i./ha. The prepared test compound solution was used for treating soil surface by hand-spraying 14 mL per pot in a fume hood. After the treatment, it was managed under the same greenhouse conditions (average temperature 30±5° C., light/dark=14/10 hours), and after 14 days (after 21 days if necessary), the external symptoms and efficacy were investigated according to the scale of 0 (no control) to 100 (complete control). The results of Table 8 were obtained by evaluating weed control value to the untreated control by conducting visual assessment.

Data set [19] relates to fall panicum. As to the kind of experiment: Herbicidal activity test against upland field weeds (foliar treatment test). The note with it: 50 g ai/ha, scale 0-100; for pest or weed control at 50 g/ha: Panicum dichotomiflorum. Put shortly:
as §1

In the next data set the test system is corn. As to the kind of experiment: Phytotoxicity test for upland field crops (foliar treatment test). Also on record: key: 0 (no harm); 9 (complete withered). Put shortly:
(§4)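 Phytotoxicity was rated on a 0 (no harm) to 9 (complete withered) scale relative to untreated plants, 7 and 14 days after spraying. Crops had been grown in fertilized horticultural soil under greenhouse conditions before foliar application at 19˜300 g a.i./ha.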

Another data set concerns wheat. The data set is described as above. Also on record: key: 0 (no harm); 9 (complete withered). Summed up:
as §4

For data set [20], the system named is bindweed. As to the kind of experiment: Herbicidal activity test against upland field weeds (soil treatment test). Also on record: key to Soil treatment herbicidal activity, Bindweed: 0 (no control); 100 (complete control). Particulars: 50 g ai/ha, scale 0 (no control) to 100 (complete control). How it is done:
as §3

On to `Cn1cnc(COCc2nc(C(F)(F)Cl)ccc2C(=O)Nc2nnnn2C)n1` [Compound No. 2-80, 6-(chlorodifluoromethyl)-2-(((1-methyl-1H-1,2,4-triazol-3-yl)methoxy)methyl)-N-(1-methyl-1H-tetrazol-5-yl)nicotinamide], for which the pest or weed control at 50 g/ha stood at 70% with indian jointvetch [1]; 98% in the data set with velvetleaf [3]; 98% in the data set on black nightshade [6]; 40% in the data set on crabgrass [7] (Digitaria sanguinalis); 40% in the data set with indian jointvetch [11]; 98% in the data set on black nightshade [12] (Solanum nigrum). Moreover, the pest or weed control at 50 g/ha with bindweed [13] amounted to 40%; in the data set with barnyard grass [14] it was 80%; in the data set with velvetleaf [15] (Abutilon theophrasti, scale 0-100, read-out: Foliar treatment herbicidal activity, velvet leaf), 98%; in the data set on cocklebur [17], 40%; in the data set with fall panicum [19], 60%. Besides, the “Soil treatment herbicidal activity, Crabgrass” value in the data set on crabgrass [2] was found to be 0. Moreover, in the data set on barnyard grass [4], the “Soil treatment herbicidal activity, barnyard grass” value amounted to 0. In addition, the plant injury at 50 g/ha in the data set on sorghum [5] was determined as 20%. In addition, the “Soil treatment herbicidal activity, Sorghum” value in the data set with sorghum [8] is given as 0. Besides, the “Soil treatment herbicidal activity, quack grass” value in the data set on quack grass [9] worked out at 0. For the same compound, in the data set on quack grass [10], the “Foliar treatment herbicidal activity, quack grass” value stood at 0. Besides, the “Soil treatment herbicidal activity, Fall panicum” value with fall panicum [16] worked out at 0. In the data set with cocklebur [18], the “Soil treatment herbicidal activity, Cocklebur” value is given as 0.
For the compound `COC(=O)OC(C)N(C(=O)c1ccc(C(F)(F)F)nc1CSCc1nnn(C)n1)c1nnnn1C` (stereo not drawn) [Compound No. 4-3, methyl(1-(N-(1-methyl-1H-tetrazol-5-yl)-2-((((2-methyl-2H-tetrazol-5-yl)methyl)thio)methyl)-6-(trifluoromethyl)nicotinamido)ethyl)carbonate], in the data set with indian jointvetch [1], the “Foliar treatment herbicidal activity, Indian jointvetch” value worked out at 100. Besides, the “Foliar treatment phytotoxicity, Corn” value came to 0 with corn (50 g ai/ha, Corn (7 days after treatment)); 0 in the data set with corn (50 g ai/ha, Corn (14 days after treatment)); 1 with corn (100 g ai/ha, Corn (7 days after treatment)); 0 with corn (100 g ai/ha, Corn (14 days after treatment)). Also, the “Foliar treatment phytotoxicity, Wheat” value was 0 in the data set with wheat (50 g ai/ha, Wheat (7 days after treatment)); 0 in the data set on wheat (50 g ai/ha, Wheat (14 days after treatment)); 0 in the data set with wheat (100 g ai/ha, Wheat (7 days after treatment)); 0 in the data set on wheat (100 g ai/ha, Wheat (14 days after treatment)). The “Soil treatment herbicidal activity, Crabgrass” value in the data set with crabgrass [2] was found to be 98. For the same compound, the “Soil treatment herbicidal activity, velvet leaf” value in the data set with velvetleaf [3] is 50. The “Soil treatment herbicidal activity, Bindweed” value with bindweed [20] amounted to 0. For the same compound, in the data set on barnyard grass [4], the “Soil treatment herbicidal activity, barnyard grass” value amounted to 0. In addition, in the data set with sorghum [5], the “Foliar treatment herbicidal activity, Sorghum” value amounted to 80. For the same compound, in the data set on black nightshade [6], the “Soil treatment herbicidal activity, black nightshade” value amounted to 100. Also, in the data set on crabgrass [7], the “Foliar treatment herbicidal activity, Crabgrass” value came to 98. Besides, the “Soil treatment herbicidal activity, Sorghum” value in the data set with sorghum [8] was 0. Also, the “Soil treatment herbicidal activity, quack grass” value in the data set on quack grass [9] came out at 0. Besides, in the data set on quack grass [10], the “Foliar treatment herbicidal activity, quack grass” value is listed as 0. In addition, the “Soil treatment herbicidal activity, Indian jointvetch” value in the data set on indian jointvetch [11] worked out at 0. In addition, the “Foliar treatment herbicidal activity, black nightshade” value with black nightshade [12] came out at 100. Besides, the “Foliar treatment herbicidal activity, Bindweed” value in the data set on bindweed [13] came to 100. For the same compound, the “Foliar treatment herbicidal activity, barnyard grass” value with barnyard grass [14] came out at 98. In the data set on velvetleaf [15], the “Foliar treatment herbicidal activity, velvet leaf” value stood at 98. Also, in the data set on fall panicum [16], the “Soil treatment herbicidal activity, Fall panicum” value was 0. Also, in the data set with cocklebur [17], the “Foliar treatment herbicidal activity, Cocklebur” value is 98. In addition, the “Foliar treatment herbicidal activity, Fall panicum” value with fall panicum [19] came to 80.
As to `CSc1nc(COCc2nc(C(F)(F)F)ccc2C(=O)Nc2nnnn2C)nn1C` [Compound No. 2-131, N-(1-methyl-1H-tetrazol-5-yl)-2-(((1-methyl-5-(methylthio)-1H-1,2,4-triazol-3-yl)methoxy)methyl)-6-(trifluoromethyl)nicotinamide], the pest or weed control at 50 g/ha in the data set on indian jointvetch [1] was 70%; with velvetleaf [3], 98%; in the data set on black nightshade [6] it was 98%; in the data set on quack grass [10], 10%; with barnyard grass [14], 98%; in the data set on cocklebur [17], 80%. Moreover, the pest or weed control at 50 g/ha with fall panicum [19] was 70%. Also, the “Soil treatment herbicidal activity, Crabgrass” value with crabgrass [2] was found to be 0. Besides, the “Soil treatment herbicidal activity, barnyard grass” value in the data set with barnyard grass [4] was found to be 0. The compound also yielded a plant injury at 50 g/ha in the data set on sorghum [5] of 40%. Besides, the “Foliar treatment herbicidal activity, Crabgrass” value in the data set with crabgrass [7] was 100. Further, the “Soil treatment herbicidal activity, Sorghum” value in the data set with sorghum [8] was determined as 0. Besides, the “Soil treatment herbicidal activity, quack grass” value in the data set on quack grass [9] amounted to 0. In addition, in the data set on indian jointvetch [11], the “Soil treatment herbicidal activity, Indian jointvetch” value was found to be 100. Also, the “Foliar treatment herbicidal activity, black nightshade” value in the data set on black nightshade [12] came to 100. In addition, in the data set with velvetleaf [15], the “Foliar treatment herbicidal activity, velvet leaf” value came out at 100. Besides, the “Soil treatment herbicidal activity, Cocklebur” value in the data set on cocklebur [18] was determined as 0.

By plant injury is commonly meant the degree to which the test organism was suppressed or injured, in per cent.

Values taken from patent US12495798B2, “Nicotinamide compound and herbicidal composition comprising compound” (KOREA RESEARCH INSTITUTE OF CHEMICAL TECHNOLOGY, priority 2019, dated 2025).
